This note sets out measurements from US11932610B1, “4-(5-(3-fluorophenyl)-4-phenyl-4H-1,2,4-triazol-3-ylthio)butanoic acid as an antimicrobial compound” (priority 2023, dated 2024).

Data set [1] concerns Bacillus cereus, Staphylococcus aureus, Pseudomonas aeruginosa, Escherichia coli, Aspergillus flavus, Chrysosporium keratinophilum. The data set can be described thus: agar plate disc-diffusion antimicrobial test. The following applies: 6 mm discs wetted with 10 μL of 10 mg/mL in DMSO; 37° C., 48 h (72 h for fungi); DMSO control zone subtracted. The class given is cell-based. As to the method: The agar plate disc-diffusion method was applied. Sterilized filter papers (6 mm in diameter) were wetted with 10 μL of a solution of 4-(5-(3-fluorophenyl)-4-phenyl-4H-1,2,4-triazol-3-ylthio)butanoic acid (III) to be tested, containing 10 mg/mL in DMSO, and the discs were allowed to air dry. The discs were then placed onto the surface of agar plates (nutrient agar for bacteria and Sabouraud's dextrose agar for fungi) seeded with the test organism. Each plate contained 15 mLof the agar medium, previously seeded with 0.2 mL of the broth culture of each organism pregrown for 18 h. The plates were incubated at 37° C. for 48 h, and 72 h for fungi. The inhibition zones was measured in mm. Discs impregnated with DMSO were used as a control, and its inhibition zone was subtracted from the tested compound actual inhibition zone. […] The antibacterial activity was screened against gram positive bacteria namely Bacillus cereus and Staphylococcus aureus and gram-negative bacterial strains namely Pseudomonas aeruginosa and Escherichia coli, while the antifungal activity was screened against Aspergillus flavus and Chrysosporium keratinophilum.
In general terms: A growth-free zone around the sample is the usual read-out of agar diffusion tests.

As usually defined, the melting point is the temperature, or range, at which the solid turns liquid.

`O=C(O)CCCSc1nnc(-c2cccc(F)c2)n1-c1ccccc1` [III, 4-(5-(3-fluorophenyl)-4-phenyl-4H-1,2,4-triazol-3-ylthio)butanoic acid] had a melting point of 173 °C. Besides, the “antimicrobial activities against different microbes” value in data set [1] was “excellent antimicrobial activities”.
